Laboratory results: US20200239530A1, “COMPOUNDS AND METHODS OF MODULATING PROTEIN DEGRADATION” (Vividion Therapeutics, Inc., priority 2017, published 2020)

Assays:
Experiment in all cases: Cysteine liganding, probe competition
Format in all cases: binding
[1] = target: T1, BACH1 Transcription regulator protein BACH1 (Homo sapiens, UniProt O14867); conditions: for Liganded: BACH1 Res# 224, uniprot O14867
T1 construct: Cells were resuspended in cold PBS on ice and sonicated with a probe sonicator to achieve lysis; endogenous in cells
T1 sequence (O14867 1-736): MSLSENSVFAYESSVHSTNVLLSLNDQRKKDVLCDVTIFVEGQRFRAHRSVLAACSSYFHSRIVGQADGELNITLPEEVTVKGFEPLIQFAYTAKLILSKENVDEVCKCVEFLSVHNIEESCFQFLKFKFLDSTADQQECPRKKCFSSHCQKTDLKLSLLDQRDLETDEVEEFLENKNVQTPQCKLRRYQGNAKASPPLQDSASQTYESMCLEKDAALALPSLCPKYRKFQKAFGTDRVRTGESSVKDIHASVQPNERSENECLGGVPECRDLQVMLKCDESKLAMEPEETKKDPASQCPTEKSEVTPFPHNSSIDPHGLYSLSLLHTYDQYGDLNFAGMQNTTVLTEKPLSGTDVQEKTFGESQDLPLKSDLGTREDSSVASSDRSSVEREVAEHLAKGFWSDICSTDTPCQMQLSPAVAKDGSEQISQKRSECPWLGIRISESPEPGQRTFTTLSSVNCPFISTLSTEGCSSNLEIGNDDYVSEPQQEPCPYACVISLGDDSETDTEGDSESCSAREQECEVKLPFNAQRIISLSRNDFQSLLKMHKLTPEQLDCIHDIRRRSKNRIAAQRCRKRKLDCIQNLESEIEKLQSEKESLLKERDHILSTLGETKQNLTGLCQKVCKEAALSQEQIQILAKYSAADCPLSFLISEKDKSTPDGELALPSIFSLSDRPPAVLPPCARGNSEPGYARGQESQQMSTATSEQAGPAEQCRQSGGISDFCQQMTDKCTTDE
Procedure, shortened: (§1)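 Lysates from probe-sonicated cells in PBS (5 mg/ml proteome) were exposed to compound for 1 hr at 25° C, then labelled with desthiobiotin iodoacetamide probe (10 mM stock) for 1 hr at 25° C. Probe-tagged peptides were streptavidin-enriched after trypsin digestion.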

[2] = target: T2, PDCD11 Protein RRP5 homolog (Homo sapiens, UniProt Q14690)
T2 construct: Cells were resuspended in cold PBS on ice and sonicated with a probe sonicator to achieve lysis; endogenous in cells
Procedure, shortened: as §1

[3] = target: T3, UBR4 E3 ubiquitin-protein ligase UBR4 (Homo sapiens, UniProt Q5T4S7)
T3 construct: Cells were resuspended in cold PBS on ice and sonicated with a probe sonicator to achieve lysis; endogenous in cells
Procedure, shortened: as §1

T2 sequence (Q14690 whole entry): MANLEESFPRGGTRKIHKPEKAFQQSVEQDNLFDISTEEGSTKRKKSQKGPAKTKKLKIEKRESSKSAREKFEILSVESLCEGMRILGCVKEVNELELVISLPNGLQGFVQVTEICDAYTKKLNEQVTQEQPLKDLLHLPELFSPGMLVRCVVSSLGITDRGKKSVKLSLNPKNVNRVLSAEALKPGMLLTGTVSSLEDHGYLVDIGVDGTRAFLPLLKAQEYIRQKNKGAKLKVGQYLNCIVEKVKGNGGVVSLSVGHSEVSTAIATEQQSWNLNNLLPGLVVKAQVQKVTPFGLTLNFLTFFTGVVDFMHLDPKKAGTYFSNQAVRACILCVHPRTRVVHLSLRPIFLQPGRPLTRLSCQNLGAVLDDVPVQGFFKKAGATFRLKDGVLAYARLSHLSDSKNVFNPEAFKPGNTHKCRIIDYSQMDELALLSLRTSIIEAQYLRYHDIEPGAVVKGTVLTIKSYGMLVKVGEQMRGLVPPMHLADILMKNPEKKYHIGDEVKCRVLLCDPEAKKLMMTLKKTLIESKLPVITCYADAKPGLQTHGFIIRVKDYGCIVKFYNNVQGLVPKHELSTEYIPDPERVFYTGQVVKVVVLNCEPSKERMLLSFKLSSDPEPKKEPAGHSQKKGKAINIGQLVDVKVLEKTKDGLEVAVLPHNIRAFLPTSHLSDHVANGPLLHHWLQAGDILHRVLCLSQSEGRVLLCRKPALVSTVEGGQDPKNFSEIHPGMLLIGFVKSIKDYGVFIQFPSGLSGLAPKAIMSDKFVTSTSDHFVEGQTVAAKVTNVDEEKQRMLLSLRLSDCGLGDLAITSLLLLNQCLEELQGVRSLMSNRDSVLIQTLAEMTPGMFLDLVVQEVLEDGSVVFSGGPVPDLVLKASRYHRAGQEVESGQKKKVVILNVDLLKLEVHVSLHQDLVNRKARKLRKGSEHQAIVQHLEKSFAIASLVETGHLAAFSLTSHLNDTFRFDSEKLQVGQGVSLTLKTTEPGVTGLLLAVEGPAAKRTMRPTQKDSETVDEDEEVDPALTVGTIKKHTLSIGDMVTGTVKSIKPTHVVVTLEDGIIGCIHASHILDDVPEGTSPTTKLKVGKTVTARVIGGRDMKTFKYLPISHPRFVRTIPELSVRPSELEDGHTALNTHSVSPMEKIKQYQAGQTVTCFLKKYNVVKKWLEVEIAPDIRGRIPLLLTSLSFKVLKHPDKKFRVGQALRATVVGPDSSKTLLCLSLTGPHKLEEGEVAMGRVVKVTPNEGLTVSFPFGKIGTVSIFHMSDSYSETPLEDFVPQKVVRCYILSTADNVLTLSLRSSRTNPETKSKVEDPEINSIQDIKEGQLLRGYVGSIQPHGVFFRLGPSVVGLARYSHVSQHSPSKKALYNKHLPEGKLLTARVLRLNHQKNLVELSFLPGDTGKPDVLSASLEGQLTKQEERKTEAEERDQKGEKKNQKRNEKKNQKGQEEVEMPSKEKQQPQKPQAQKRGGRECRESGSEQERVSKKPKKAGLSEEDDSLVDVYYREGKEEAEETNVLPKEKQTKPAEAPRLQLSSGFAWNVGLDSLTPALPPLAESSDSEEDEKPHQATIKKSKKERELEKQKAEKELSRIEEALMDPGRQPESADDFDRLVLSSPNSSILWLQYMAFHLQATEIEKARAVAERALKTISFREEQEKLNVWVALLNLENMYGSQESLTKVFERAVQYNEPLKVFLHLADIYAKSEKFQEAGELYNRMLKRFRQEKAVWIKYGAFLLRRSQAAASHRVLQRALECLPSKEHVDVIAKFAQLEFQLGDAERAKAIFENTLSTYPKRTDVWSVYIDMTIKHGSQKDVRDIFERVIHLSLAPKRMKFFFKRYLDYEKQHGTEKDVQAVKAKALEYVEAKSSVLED

| SMILES | Liganded [1] | Liganded ([2]; PDCD11 Res# 361, uniprot Q14690) | Liganded ([3]; UBR4 Res# 4049, uniprot Q5T4S7) | 100 Max ([1]; uniprot O14867) | 100 ave ([1]; uniprot O14867) | 500 Max ([1]; uniprot O14867) | 500 ave ([1]; uniprot O14867) | 100 Max ([2]; uniprot Q14690) | 100 ave ([2]; uniprot Q14690) | 500 ave ([2]; uniprot Q14690) | 500 Max ([2]; uniprot Q14690, in % (unit assumed)) | 100 Max ([3]; uniprot Q5T4S7) | 100 ave ([3]; uniprot Q5T4S7) | 500 Max ([3]; uniprot Q5T4S7) | 500 ave ([3]; uniprot Q5T4S7) |
| --- | --- | --- | --- | --- | --- | --- | --- | --- | --- | --- | --- | --- | --- | --- | --- |
| COc1ccc2c(c1)CCCN2C(=O)CCl [KB02] | YES | YES | YES | – | – | – | – | – | – | – | – | – | – | – | – |
| O=C(CCl)Nc1cc(C(F)(F)F)cc(C(F)(F)F)c1 [KBO3] | YES | – | – | 53.8 | 53.8 | 85.3 | 85.3 | 19.85 | 3.78 | 46.645 | 49.26 | 13.1 | −4.9 | 49.5 | 29.3 |
